{
  "source": "patent US7820661B2",
  "about": "“Substituted gamma lactams as therapeutics agents” (Allergan, Inc., priority 2008, dated 2010)",
  "system": "lashes and adjacent hairs (hair growth)",
  "experiment": "Observation of lashes and adjacent hairs in glaucoma patients treated with bimatoprost in only one eye",
  "format": "in vivo",
  "excerpt": "In the course of treating patients having glaucoma, treatment may only be appropriate in one eye. […] The lash appearance on the lids of the treated eyes would have appeared quite attractive if it represented a bilateral phenomenon. As a result of its asymmetric nature, the long lashes on one side could be construed as disturbing from a cosmetic standpoint. A systemic examination was preformed as a result of the asymmetric phenomenon. It soon became apparent that this altered appearance was not an isolated finding.\nThe changes in the lashes were apparent on gross inspection in several patients once attention was focused on the issue. In those with light colored hair and lashes, the differences were only seen easily with the aid of the high magnification and lighting capabilities of the slit lamp biomicroscope. In the course of glaucoma follow-up examination, attention is generally immediately focused on the eye itself. As a result of the high power magnification needed only one eye is seen at a time and the eye is seen at a high enough power that the lashes are not in focus. At these higher powers, any lash asymmetry between the two eyes is not likely to be noticed except by careful systematic comparison of the lashes and adjacent hairs of the eyelids of the two eyes. […]",
  "data": [
    {"smiles": "CCNC(=O)CCC/C=C\\C[C@@H]1[C@@H](/C=C/[C@@H](O)CCc2ccccc2)[C@H](O)C[C@@H]1O", "note": "[bimatoprost]", "values": [
      {"measurement": "differences in the lashes and adjacent hairs of the treated side", "setting": "all patients taking the drug on a unilateral basis for longer than 6 months", "result": "Definite differences could be identified to varying degrees"},
      {"measurement": "appearance of lashes in the treated eye compared with the non-treated eye", "setting": "glaucoma patient treated in one eye, treated vs non-treated eye", "result": "longer, thicker, and fuller"}
    ]}
  ]
}
